Series [1] can be described thus: Solubilization of lumichrome in the FMN formulation. Type of series: physicochemical.
The nature of series [2]: Solubility of riboflavin as a function of pH and % FMN. The format is physicochemical. The conditions noted are these: for solubility thermodynamic: thermodynamic from solid. An excerpt: The equilibrium solubility of riboflavin is approximately 70 mcg/ml (see plot below with no FMN present). Precipitation is expected to occur if riboflavin reaches a level above this (due to riboflavin in drug substance or due to degradation to riboflavin with time), and precipitation would be unacceptable for patient safety with intravenous use.
Solubility of Riboflavin as a function of pH and % FMN [formula]
At 1% FMN, up to 365 mcg/ml of riboflavin can dissolve.

From patent US20030161871A1, “Solubilized riboflavin” (priority 2001, published 2003) come the findings set out here.

In brackets after ≈: the same amount, converted by molar mass. Where two headings read alike, the source gives them in different places.

Take `Cc1cc2nc3[nH]c(=O)[nH]c(=O)c3nc2cc1C` [lumichrome]: the “solubility of lumichrome in the current formulation” value in series [1] is listed as “dissolve at levels above the equilibrium solubility”.
With `Cc1cc2nc3c(=O)[nH]c(=O)nc-3n(C[C@H](O)[C@H](O)[C@H](O)CO)c2cc1C` [riboflavin], the solubility thermodynamic in series [2] (1% FMN solution, aqueous with cosolvent or surfactant or cyclodextrin, read-out: riboflavin that can dissolve (equilibrium solubility)) is no more than 365 µg/mL; in series [2] (5% FMN solution, aqueous with cosolvent or surfactant or cyclodextrin, 5% FMN, pH 7-8, read-out: riboflavin that can dissolve (equilibrium solubility)), no more than 1320 µg/mL; in series [2] (no FMN present, read-out: equilibrium solubility of riboflavin) it was roughly 70 µg/mL (≈ 186 µM). Also, the “equilibrium solubility of riboflavin” value in series [2] (no FMN present) is “approximately 70 mcg/ml”.
